≈ marks a conversion by molar mass, not a printed value.
Legend:
Type in all cases: functional
Staphylococcus aureus [1] = experiment: Antibacterial activity against methicillin-sensitive Staphylococcus aureus 04-4 after 18 to 24 hrs
Staphylococcus aureus [2] = experiment: Antibacterial activity against methicillin-resistant Staphylococcus aureus 05-3 after 18 to 24 hrs
Streptococcus pneumoniae = experiment: Antibacterial activity against Streptococcus pneumoniae 05-9 after 18 to 24 hrs
Enterococcus faecalis = experiment: Antibacterial activity against Enterococcus faecalis 03-4 after 18 to 24 hrs
Escherichia coli = experiment: Antibacterial activity against Escherichia coli ATCC 25922 after 18 to 24 hrs
Klebsiella pneumoniae = experiment: Antibacterial activity against Klebsiella pneumoniae 05-4 after 18 to 24 hrs
Pseudomonas aeruginosa = experiment: Antibacterial activity against Pseudomonas aeruginosa […] after 18 to 24 hrs

Structure (SMILES): CCO/N=C1\CN(c2nc3c(cc2F)c(=O)c(C(=O)O)cn3C2CC2)CCC1NC (stereo not drawn)
- MIC (Staphylococcus aureus [1]): < 0.001 µg/mL
- MIC (Staphylococcus aureus [2]): 2 µg/mL (≈ 4.79 µM)
- MIC (Streptococcus pneumoniae): < 0.001 µg/mL
- MIC (Enterococcus faecalis): < 0.001 µg/mL
- MIC (Escherichia coli): 4 µg/mL (≈ 9.58 µM)
- MIC (Klebsiella pneumoniae): 1 µg/mL (≈ 2.4 µM)
- MIC (Pseudomonas aeruginosa): 0.06 µg/mL (≈ 0.144 µM)

Structure (SMILES): CCCO/N=C1\CCN(c2nc3c(cc2F)c(=O)c(C(=O)O)cn3C2CC2)CC1N(C)C (stereo not drawn)
- MIC (Staphylococcus aureus [1]): 0.5 µg/mL (≈ 1.12 µM)
- MIC (Staphylococcus aureus [2]): 2 µg/mL (≈ 4.49 µM)
- MIC (Streptococcus pneumoniae): 0.125 µg/mL (≈ 0.281 µM)
- MIC (Enterococcus faecalis): 0.25 µg/mL (≈ 0.561 µM)
- MIC (Escherichia coli): 16 µg/mL (≈ 35.9 µM)
- MIC (Klebsiella pneumoniae): 16 µg/mL (≈ 35.9 µM)
- MIC (Pseudomonas aeruginosa): 2 µg/mL (≈ 4.49 µM)

Structure (SMILES): CO/N=C1\CCN(c2nc3c(cc2F)c(=O)c(C(=O)O)cn3C2CC2)CC1N(C)C (stereo not drawn)
- MIC (Staphylococcus aureus [1]): 0.004 µg/mL (≈ 0.00958 µM)
- MIC (Staphylococcus aureus [2]): 1 µg/mL (≈ 2.4 µM)
- MIC (Streptococcus pneumoniae): 0.015 µg/mL (≈ 0.0359 µM)
- MIC (Enterococcus faecalis): 0.015 µg/mL (≈ 0.0359 µM)
- MIC (Escherichia coli): 8 µg/mL (≈ 19.2 µM)
- MIC (Klebsiella pneumoniae): 1 µg/mL (≈ 2.4 µM)
- MIC (Pseudomonas aeruginosa): 0.125 µg/mL (≈ 0.299 µM)

Structure (SMILES): CC(=O)NC[C@H]1CN(c2ccc(N3CCOCC3)c(F)c2)C(=O)O1 [LINEZOLID]
- MIC (Staphylococcus aureus [1]): 0.5 µg/mL (≈ 1.48 µM)
- MIC (Staphylococcus aureus [2]): 1 µg/mL (≈ 2.96 µM)
- MIC (Enterococcus faecalis): 0.125 µg/mL (≈ 0.371 µM)

Structure (SMILES): CO/N=C1\CN(c2nc3c(cc2F)c(=O)c(C(=O)O)cn3C2CC2)CCC1N (stereo not drawn)
- MIC (Staphylococcus aureus [1]): 2 µg/mL (≈ 5.14 µM)
- MIC (Staphylococcus aureus [2]): 4 µg/mL (≈ 10.3 µM)
- MIC (Streptococcus pneumoniae): 2 µg/mL (≈ 5.14 µM)
- MIC (Enterococcus faecalis): 2 µg/mL (≈ 5.14 µM)
- MIC (Escherichia coli): 1 µg/mL (≈ 2.57 µM)
- MIC (Klebsiella pneumoniae): 1 µg/mL (≈ 2.57 µM)
- MIC (Pseudomonas aeruginosa): 1 µg/mL (≈ 2.57 µM)

Structure (SMILES): CO/N=C1\CN(c2nc3c(cc2F)c(=O)c(C(=O)O)cn3C2CC2)CC1CN (stereo not drawn) [GEMIFLOXACIN]
- MIC (Staphylococcus aureus [1]): 0.004 µg/mL (≈ 0.0103 µM)
- MIC (Staphylococcus aureus [2]): 0.004 µg/mL (≈ 0.0103 µM)
- MIC (Streptococcus pneumoniae): 0.004 µg/mL (≈ 0.0103 µM)
- MIC (Enterococcus faecalis): 0.004 µg/mL (≈ 0.0103 µM)
- MIC (Escherichia coli): 0.125 µg/mL (≈ 0.321 µM)
- MIC (Klebsiella pneumoniae): 0.125 µg/mL (≈ 0.321 µM)
- MIC (Pseudomonas aeruginosa): 0.125 µg/mL (≈ 0.321 µM)

Structure (SMILES): CNC1CN(c2nc3c(cc2F)c(=O)c(C(=O)O)cn3C2CC2)CC/C1=N\OC (stereo not drawn)
- MIC (Staphylococcus aureus [1]): < 0.001 µg/mL
- MIC (Staphylococcus aureus [2]): 4 µg/mL (≈ 9.92 µM)
- MIC (Streptococcus pneumoniae): < 0.001 µg/mL
- MIC (Enterococcus faecalis): < 0.001 µg/mL
- MIC (Escherichia coli): 4 µg/mL (≈ 9.92 µM)
- MIC (Klebsiella pneumoniae): 2 µg/mL (≈ 4.96 µM)
- MIC (Pseudomonas aeruginosa): 1 µg/mL (≈ 2.48 µM)

Structure (SMILES): CCO/N=C1\CCN(c2nc3c(cc2F)c(=O)c(C(=O)O)cn3C2CC2)CC1N(C)C (stereo not drawn)
- MIC (Staphylococcus aureus [1]): 0.015 µg/mL (≈ 0.0348 µM)
- MIC (Staphylococcus aureus [2]): 1 µg/mL (≈ 2.32 µM)
- MIC (Streptococcus pneumoniae): 0.002 µg/mL (≈ 0.00464 µM)
- MIC (Enterococcus faecalis): 0.004 µg/mL (≈ 0.00927 µM)
- MIC (Escherichia coli): 8 µg/mL (≈ 18.5 µM)
- MIC (Klebsiella pneumoniae): 2 µg/mL (≈ 4.64 µM)
- MIC (Pseudomonas aeruginosa): 1 µg/mL (≈ 2.32 µM)

Structure (SMILES): CN(C)C1CN(c2nc3c(cc2F)c(=O)c(C(=O)O)cn3C2CC2)CC/C1=N\OCc1ccccc1 (stereo not drawn)
- MIC (Staphylococcus aureus [1]): 0.015 µg/mL (≈ 0.0304 µM)
- MIC (Staphylococcus aureus [2]): 4 µg/mL (≈ 8.1 µM)
- MIC (Streptococcus pneumoniae): 0.015 µg/mL (≈ 0.0304 µM)
- MIC (Enterococcus faecalis): 0.06 µg/mL (≈ 0.122 µM)
- MIC (Escherichia coli): 16 µg/mL (≈ 32.4 µM)
- MIC (Klebsiella pneumoniae): 16 µg/mL (≈ 32.4 µM)
- MIC (Pseudomonas aeruginosa): 2 µg/mL (≈ 4.05 µM)

Structure (SMILES): CCCO/N=C1\CN(c2nc3c(cc2F)c(=O)c(C(=O)O)cn3C2CC2)CCC1NC (stereo not drawn)
- MIC (Staphylococcus aureus [1]): 0.06 µg/mL (≈ 0.139 µM)
- MIC (Staphylococcus aureus [2]): 2 µg/mL (≈ 4.64 µM)
- MIC (Streptococcus pneumoniae): 0.03 µg/mL (≈ 0.0695 µM)
- MIC (Enterococcus faecalis): 0.06 µg/mL (≈ 0.139 µM)
- MIC (Escherichia coli): 4 µg/mL (≈ 9.27 µM)
- MIC (Klebsiella pneumoniae): 4 µg/mL (≈ 9.27 µM)
- MIC (Pseudomonas aeruginosa): 0.06 µg/mL (≈ 0.139 µM)

Structure (SMILES): CNC1CN(c2nc3c(cc2F)c(=O)c(C(=O)O)cn3C2CC2)CC/C1=N\OCc1ccccc1 (stereo not drawn)
- MIC (Staphylococcus aureus [1]): 0.125 µg/mL (≈ 0.261 µM)
- MIC (Staphylococcus aureus [2]): 16 µg/mL (≈ 33.4 µM)
- MIC (Streptococcus pneumoniae): 0.25 µg/mL (≈ 0.521 µM)
- MIC (Enterococcus faecalis): 0.125 µg/mL (≈ 0.261 µM)
- MIC (Escherichia coli): 16 µg/mL (≈ 33.4 µM)
- MIC (Klebsiella pneumoniae): 16 µg/mL (≈ 33.4 µM)
- MIC (Pseudomonas aeruginosa): 2 µg/mL (≈ 4.17 µM)

Structure (SMILES): CN[C@H](CC(C)C)C(=O)N[C@H]1C(=O)N[C@@H](CC(N)=O)C(=O)N[C@H]2C(=O)N[C@H]3C(=O)N[C@H](C(=O)N[C@H](C(=O)O)c4cc(O)cc(O)c4-c4cc3ccc4O)[C@H](O)c3ccc(c(Cl)c3)Oc3cc2cc(c3O[C@@H]2O[C@H](CO)[C@@H](O)[C@H](O)[C@H]2O[C@H]2C[C@](C)(N)[C@H](O)[C@H](C)O2)Oc2ccc(cc2Cl)[C@H]1O [VANCOMYCIN]
- MIC (Streptococcus pneumoniae): 0.004 µg/mL (≈ 0.00276 µM)

Structure (SMILES): CNC1CCN(c2nc3c(cc2F)c(=O)c(C(=O)O)cn3C2CC2)C/C1=N\OCc1ccccc1 (stereo not drawn)
- MIC (Staphylococcus aureus [1]): < 0.001 µg/mL
- MIC (Staphylococcus aureus [2]): 2 µg/mL (≈ 4.17 µM)
- MIC (Streptococcus pneumoniae): < 0.001 µg/mL
- MIC (Enterococcus faecalis): < 0.001 µg/mL
- MIC (Escherichia coli): 8 µg/mL (≈ 16.7 µM)
- MIC (Klebsiella pneumoniae): 4 µg/mL (≈ 8.34 µM)
- MIC (Pseudomonas aeruginosa): 0.5 µg/mL (≈ 1.04 µM)

Structure (SMILES): CO/N=C1\CCN(c2nc3c(cc2F)c(=O)c(C(=O)O)cn3C2CC2)CC1N (stereo not drawn)
- MIC (Staphylococcus aureus [1]): 4 µg/mL (≈ 10.3 µM)
- MIC (Staphylococcus aureus [2]): 16 µg/mL (≈ 41.1 µM)
- MIC (Streptococcus pneumoniae): 4 µg/mL (≈ 10.3 µM)
- MIC (Enterococcus faecalis): 8 µg/mL (≈ 20.5 µM)
- MIC (Escherichia coli): 8 µg/mL (≈ 20.5 µM)
- MIC (Klebsiella pneumoniae): 2 µg/mL (≈ 5.14 µM)
- MIC (Pseudomonas aeruginosa): 4 µg/mL (≈ 10.3 µM)

Structure (SMILES): CCCO/N=C1\CCN(c2nc3c(cc2F)c(=O)c(C(=O)O)cn3C2CC2)CC1NC (stereo not drawn)
- MIC (Staphylococcus aureus [1]): 0.03 µg/mL (≈ 0.0695 µM)
- MIC (Staphylococcus aureus [2]): 16 µg/mL (≈ 37.1 µM)
- MIC (Streptococcus pneumoniae): 0.015 µg/mL (≈ 0.0348 µM)
- MIC (Enterococcus faecalis): 0.015 µg/mL (≈ 0.0348 µM)
- MIC (Escherichia coli): 8 µg/mL (≈ 18.5 µM)
- MIC (Klebsiella pneumoniae): 8 µg/mL (≈ 18.5 µM)
- MIC (Pseudomonas aeruginosa): 2 µg/mL (≈ 4.64 µM)

Structure (SMILES): CO/N=C1\CN(c2nc3c(cc2F)c(=O)c(C(=O)O)cn3C2CC2)CCC1NC1CC1 (stereo not drawn)
- MIC (Staphylococcus aureus [1]): 0.015 µg/mL (≈ 0.0349 µM)
- MIC (Staphylococcus aureus [2]): 2 µg/mL (≈ 4.66 µM)
- MIC (Streptococcus pneumoniae): 0.004 µg/mL (≈ 0.00931 µM)
- MIC (Enterococcus faecalis): 0.004 µg/mL (≈ 0.00931 µM)
- MIC (Escherichia coli): 16 µg/mL (≈ 37.3 µM)
- MIC (Klebsiella pneumoniae): 16 µg/mL (≈ 37.3 µM)
- MIC (Pseudomonas aeruginosa): 1 µg/mL (≈ 2.33 µM)

Structure (SMILES): CNC1CCN(c2nc3c(cc2F)c(=O)c(C(=O)O)cn3C2CC2)C/C1=N\OC (stereo not drawn)
- MIC (Staphylococcus aureus [1]): < 0.001 µg/mL
- MIC (Staphylococcus aureus [2]): 0.5 µg/mL (≈ 1.24 µM)
- MIC (Streptococcus pneumoniae): < 0.001 µg/mL
- MIC (Enterococcus faecalis): < 0.001 µg/mL
- MIC (Escherichia coli): 1 µg/mL (≈ 2.48 µM)
- MIC (Klebsiella pneumoniae): 1 µg/mL (≈ 2.48 µM)
- MIC (Pseudomonas aeruginosa): 0.06 µg/mL (≈ 0.149 µM)

Structure (SMILES): CO/N=C1\CCN(c2nc3c(cc2F)c(=O)c(C(=O)O)cn3C2CC2)CC1NC1CC1 (stereo not drawn)
- MIC (Staphylococcus aureus [1]): 0.015 µg/mL (≈ 0.0349 µM)
- MIC (Staphylococcus aureus [2]): 2 µg/mL (≈ 4.66 µM)
- MIC (Streptococcus pneumoniae): 0.004 µg/mL (≈ 0.00931 µM)
- MIC (Enterococcus faecalis): 0.004 µg/mL (≈ 0.00931 µM)
- MIC (Escherichia coli): 16 µg/mL (≈ 37.3 µM)
- MIC (Klebsiella pneumoniae): 16 µg/mL (≈ 37.3 µM)
- MIC (Pseudomonas aeruginosa): 8 µg/mL (≈ 18.6 µM)

Structure (SMILES): CCO/N=C1\CCN(c2nc3c(cc2F)c(=O)c(C(=O)O)cn3C2CC2)CC1NC (stereo not drawn)
- MIC (Staphylococcus aureus [1]): < 0.001 µg/mL
- MIC (Staphylococcus aureus [2]): 4 µg/mL (≈ 9.58 µM)
- MIC (Streptococcus pneumoniae): < 0.001 µg/mL
- MIC (Enterococcus faecalis): < 0.001 µg/mL
- MIC (Escherichia coli): 8 µg/mL (≈ 19.2 µM)
- MIC (Klebsiella pneumoniae): 16 µg/mL (≈ 38.3 µM)
- MIC (Pseudomonas aeruginosa): 1 µg/mL (≈ 2.4 µM)

Source: ChEMBL document CHEMBL1145415, “Synthesis and antibacterial activity of novel fluoroquinolones containing substituted piperidines” (2007)
